What was measured:
Details in all cases: 72 h
[1] = test system: HEL
In short: (§1)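 Fifteen myeloid leukaemia cell lines were seeded in RPMI 1640 at densities titrated to the linear growth range and placed in 384-well plates with acoustically pre-printed compounds at five tenfold doses from 1 to 10,000 nM, in duplicate. After 72 h at 37 °C with 5% CO2, luminescent ATP viability was normalised to vehicle and to a positive control at 10 µM, and curves were fitted with a four-parameter log-logistic model. The IC50 was obtained from these fits.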

[2] = test system: KCL-22
In short: as §1

[3] = test system: HL-60
In short: as §1

[4] = test system: ML-2
In short: as §1

[5] = test system: KG-1
In short: as §1

[6] = test system: MOLM-13
In short: as §1

[7] = test system: MV4-11
In short: as §1

[8] = test system: Mono-Mac-6
In short: as §1

[9] = test system: KU-812
In short: as §1

[10] = test system: LAMA-84
In short: as §1

[11] = test system: K-562
In short: as §1

[12] = test system: THP-1
In short: as §1

[13] = test system: NOMO-1
In short: as §1

[14] = test system: BV-173
In short: as §1

[15] = test system: SHI-1
In short: as §1

[16] = test system: HEL; experiment: cell viability (% survival relative to DMSO control, bortezomib = 0%); higher = less cytotoxic
In short: (§2)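 Fifteen myeloid leukaemia cell lines (10 AML, 5 CML) were seeded at a density titrated to the linear growth range into 384-well plates pre-printed with compounds at 1, 10, 100, 1000 or 10000 nM in duplicate. Plates were incubated for 72 h at 37 °C with 5% CO2. Viability was then read by CellTiter-Glo luminescence. Each value is percent survival averaged over the duplicates, with vehicle set to 100% and a 10 µM positive control to 0%.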

[17] = test system: KCL-22; experiment: as above
In short: as §2

[18] = test system: HL-60; experiment: as above
In short: as §2

[19] = test system: ML-2; experiment: as above
In short: as §2

[20] = test system: KG-1; experiment: as above
In short: as §2

[21] = test system: MOLM-13; experiment: as above
In short: as §2

[22] = test system: MV4-11; experiment: as above
In short: as §2

[23] = test system: Mono-Mac-6; experiment: as above
In short: as §2

[24] = test system: KU-812; experiment: as above
In short: as §2

[25] = test system: LAMA-84; experiment: as above
In short: as §2

[26] = test system: K-562; experiment: as above
In short: as §2

[27] = test system: THP-1; experiment: as above
In short: as §2

[28] = test system: NOMO-1; experiment: as above
In short: as §2

[29] = test system: BV-173; experiment: as above
In short: as §2

[30] = test system: SHI-1; experiment: as above
In short: as §2

Cc1cccc(Nc2cc(Cl)nc(SCC(=O)O)n2)c1C [Pirinixic acid]
Details	IC50 (cell viability) [µM]
[1]	> 10
[2]	> 10
[3]	> 10
[4]	> 10
[5]	> 10
[6]	> 10
[7]	> 10
[8]	> 10
[9]	> 10
[10]	> 10
[11]	> 10
[12]	> 10
[13]	> 10
[14]	> 10
[15]	> 10

cell viability [%]
Details	1 nM	10 nM	100 nM	1000 nM	10000 nM
[16]	84	100	109	104	101
[17]	86.5	92.5	100	106	101
[18]	97.2	101	116	93.8	98.2
[19]	103	103	105	105	102
[20]	99	93.1	101	98.8	107
[21]	106	102	87.1	111	84.6
[22]	94.5	90.7	102	99.3	99.8
[23]	105	106	98.4	99.2	91.4
[24]	97.2	97.6	102	96.4	97.3
[25]	100	97.7	99	94.5	95
[26]	99.8	92.3	102	94.5	90.7
[27]	105	97.1	101	99.5	102
[28]	106	102	102	90.5	96.8
[29]	106	90.6	104	92.1	93.5
[30]	98.5	97	91.8	94.4	82.8

C[C@]12C=CC(=O)C=C1CC[C@@H]1[C@@H]2[C@@H](O)C[C@@]2(C)[C@H]1CC[C@]2(O)C(=O)CO [Prednisolone]
Details	IC50 (cell viability) [µM]
[1]	> 10
[2]	0.524
[3]	> 10
[4]	> 10
[5]	> 10
[6]	> 10
[7]	> 10
[8]	> 10
[9]	> 10
[10]	> 10
[11]	> 10
[12]	> 10
[13]	> 10
[14]	0.0525
[15]	> 10

cell viability [%]
Details	1 nM	10 nM	100 nM	1000 nM	10000 nM
[16]	105	114	109	109	105
[17]	94.2	111	82.5	45.4	43
[18]	93.2	93.5	104	114	116
[19]	91.5	104	115	114	104
[20]	115	105	87.7	91.3	71.4
[21]	94.3	96	118	106	109
[22]	95.2	110	143	142	107
[23]	93.7	90.3	151	157	140
[24]	87.2	104	99.8	124	112
[25]	94.1	106	92.6	88.5	81.5
[26]	112	88.7	104	99	92.6
[27]	92	96.4	106	108	102
[28]	93.3	103	109	88.7	87.3
[29]	82.5	104	18.8	1.67	2.49
[30]	97.7	95.7	97.9	67.6	71.9

N#C/C(=C\c1ccc(O)cc1)C(=O)O [alpha-cyano-4-hydroxycinnamic acid]
Details	IC50 (cell viability) [µM]
[1]	> 10
[2]	> 10
[3]	> 10
[4]	> 10
[5]	> 10
[6]	> 10
[7]	> 10
[8]	> 10
[9]	> 10
[10]	> 10
[11]	> 10
[12]	> 10
[13]	> 10
[14]	> 10
[15]	> 10

cell viability [%]
Details	1 nM	10 nM	100 nM	1000 nM	10000 nM
[16]	99.3	114	118	113	116
[17]	98.3	97.6	103	94	92
[18]	79.6	78.6	113	99.5	83.1
[19]	92.4	101	96.2	95.8	94.5
[20]	101	96.7	103	99.2	103
[21]	97.7	99.7	104	99.1	85.2
[22]	100	95.3	95.7	100	101
[23]	98.2	101	103	103	104
[24]	97.9	114	89.3	87.4	105
[25]	96.5	107	96.7	101	101
[26]	101	72.2	95.4	103	91
[27]	95.5	98.3	98.3	87.5	93.2
[28]	99.5	96.2	106	104	97.3
[29]	96.5	103	84.2	80.1	113
[30]	99.9	97	95.1	97.3	86.6

O=c1cc(N2CCOCC2)oc2c(-c3ccccc3)cccc12
Details	IC50 (cell viability) [µM]
[1]	0.0487
[2]	9.05
[3]	0.334
[4]	0.0328
[5]	4.97
[6]	0.185
[7]	0.0392
[8]	3.75
[9]	> 10
[10]	> 10
[11]	0.291
[12]	> 10
[13]	0.0252
[14]	0.0237
[15]	3.6

cell viability [%]
Details	1 nM	10 nM	100 nM	1000 nM	10000 nM
[16]	133	92.1	23.1	98.9	78.1
[17]	123	104	90.5	98.9	45.1
[18]	130	118	103	0.801	0.404
[19]	143	103	17.6	89.4	54.9
[20]	114	106	82.8	90.8	28.4
[21]	125	119	77.5	1.16	0.26
[22]	131	120	0.364	-0.297	-0.0959
[23]	116	103	95.3	83.2	40.7
[24]	115	100	56.3	95.1	54.8
[25]	127	108	46.1	84.2	65.3
[26]	135	104	90.3	6.74	0.516
[27]	116	94.1	99.8	95.8	59.3
[28]	122	96	9.05	90.4	57.1
[29]	176	95.7	1.14	95.6	48
[30]	123	102	106	92.8	30.7

C=CC(=O)c1ccc(O)cc1 [4-Acryloylphenol]
Details	IC50 (cell viability) [µM]
[1]	6.6
[2]	6.68
[3]	> 10
[4]	9.62
[5]	> 10
[6]	> 10
[7]	4.22
[8]	> 10
[9]	7.96
[10]	> 10
[11]	> 10
[12]	> 10
[13]	3.44
[14]	3.1
[15]	> 10

cell viability [%]
Details	1 nM	10 nM	100 nM	1000 nM	10000 nM
[16]	80	90.5	94.7	115	26.6
[17]	86.1	89.5	102	124	28.2
[18]	90	80.9	97.5	105	94.6
[19]	90	90.7	105	125	46.9
[20]	83.7	92.7	99.8	114	86.2
[21]	81.7	79.4	83.1	124	78.7
[22]	91	89.9	94.3	137	-1.55
[23]	86.3	99.1	111	103	54.6
[24]	82.9	97.5	96.4	97.7	36.1
[25]	86.7	91.9	99.9	105	56.7
[26]	86.2	85.5	101	114	66.7
[27]	89.8	88.1	102	99.4	72.8
[28]	88	92.6	107	102	2.21
[29]	82.2	86.6	104	93	-1.1
[30]	99.7	92.7	102	114	103

From the supplement of paper PMC8671470
